# Source: patent publication US20260028354A1, “TETRAHYDRONAPHTHALENE DERIVATIVES AS ESTROGEN RECEPTOR DEGRADERS” (REGENT OF THE UNIVERSITY OF MICHIGAN, priority 2022, published 2026)
# Assay: Western blot analysis for "B" compounds
# Assay type: cell-based
# Details: read-out: Traditional Western Degradation Potency (DC50)
# Summary of the method: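 Target protein levels given as relative mean band intensity over GAPDH from scanned immunoblots. Lysates of treated cells in RIPA buffer, equalized by BCA, separated on 10% gels and transferred to PVDF.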
row,Compound,DC50 [nM]
1,"O=C1CCC(N2C(=O)c3cc4c(cc3C2=O)CN(CC2CN(C(=O)C3CN(c5ccc([C@@H]6c7ccc(O)cc7CC[C@@H]6c6ccccc6)cc5)C3)C2)C4)C(=O)N1 (stereo partly drawn) [Compound B263, 2-(2,6-dioxopiperidin-3-yl)-6-((1-(1-(4-((1R,2S)-6-hydroxy-2-phenyl-1,2,3,4-tetrahydronaphthalen-1-yl)phenyl)azetidine-3-carbonyl)azetidin-3-yl)methyl)-6,7-dihydropyrrolo[3,4-f]isoindole-1,3(2H,5H)-dione]",> 100
2,"O=C1CCC(N2C(=O)c3cc4c(cc3C2=O)CN(CC2CCN(C(=O)C3CN(c5ccc([C@@H]6c7ccc(O)cc7CC[C@@H]6c6ccccc6)cc5)C3)CC2)C4)C(=O)N1 (stereo partly drawn) [Compound B264, 2-(2,6-dioxopiperidin-3-yl)-6-((1-(1-(4-((1R,2S)-6-hydroxy-2-phenyl-1,2,3,4-tetrahydronaphthalen-1-yl)phenyl)azetidine-3-carbonyl)piperidin-4-yl)methyl)-6,7-dihydropyrrolo[3,4-f]isoindole-1,3(2H,5H)-dione]",> 100
3,"O=C1CCC(N2C(=O)c3cc4c(cc3C2=O)CN(CC2(F)CCN(C(=O)C3(F)CN(c5ccc([C@@H]6c7ccc(O)cc7CC[C@@H]6c6ccccc6)cc5)C3)CC2)C4)C(=O)N1 (stereo partly drawn) [Compound B265, 2-(2,6-dioxopiperidin-3-yl)-6-((4-fluoro-1-(3-fluoro-1-(4-((1R,2S)-6-hydroxy-2-phenyl-1,2,3,4-tetrahydronaphthalen-1-yl)phenyl)azetidine-3-carbonyl)piperidin-4-yl)methyl)-6,7-dihydropyrrolo[3,4-f]isoindole-1,3(2H,5H)-dione]",> 100
4,"O=C1CCC(N2C(=O)c3cc4c(cc3C2=O)CN(CC2CCN(C(=O)C3(F)CN(c5ccc([C@@H]6c7ccc(O)cc7CC[C@@H]6c6ccccc6)cc5)C3)CC2)C4)C(=O)N1 (stereo partly drawn) [Compound B266, 2-(2,6-dioxopiperidin-3-yl)-6-((1-(3-fluoro-1-(4-((1R,2S)-6-hydroxy-2-phenyl-1,2,3,4-tetrahydronaphthalen-1-yl)phenyl)azetidine-3-carbonyl)piperidin-4-yl)methyl)-6,7-dihydropyrrolo[3,4-f]isoindolc-1,3(2H,5H)-dionc]",> 100
5,"O=C1CCC(N2C(=O)c3cc4c(cc3C2=O)CN(CC2(F)CCN(C(=O)C3CCN(c5ccc([C@@H]6c7ccc(O)cc7CC[C@@H]6c6ccccc6)cc5)CC3)CC2)C4)C(=O)N1 (stereo partly drawn) [Compound B267, 2-(2,6-dioxopiperidin-3-yl)-6-((4-fluoro-1-(1-(4-((1R,2S)-6-hydroxy-2-phenyl-1,2,3,4-tetrahydronaphthalen-1-yl)phenyl)piperidine-4-carbonyl)piperidin-4-yl)methyl)-6,7-dihydropyrrolo[3,4-f]isoindole-1,3(2H,5H)-dione]",> 100
6,"O=C1CCC(N2C(=O)c3cc4c(cc3C2=O)CN(CC2(F)CN(C(=O)C3CCN(c5ccc([C@@H]6c7ccc(O)cc7CC[C@@H]6c6ccccc6)cc5)CC3)C2)C4)C(=O)N1 (stereo partly drawn) [Compound B268, 2-(2,6-dioxopiperidin-3-yl)-6-((3-fluoro-1-(1-(4-((1R,2S)-6-hydroxy-2-phenyl-1,2,3,4-tetrahydronaphthalen-1-yl)phenyl)piperidine-4-carbonyl)azetidin-3-yl)methyl)-6,7-dihydropyrrolo[3,4-f]isoindole-1,3(2H,5H)-dione]",> 100
7,"O=C1CCC(N2C(=O)c3cc4c(cc3C2=O)CN(CC2CCN(C(=O)C3(F)CCN(c5ccc([C@@H]6c7ccc(O)cc7CC[C@@H]6c6ccccc6)cc5)CC3)CC2)C4)C(=O)N1 (stereo partly drawn) [Compound B269, 2-(2,6-dioxopiperidin-3-yl)-6-((1-(4-fluoro-1-(4-((1R,2S)-6-hydroxy-2-phenyl-1,2,3,4-tetrahydronaphthalen-1-yl)phenyl)piperidine-4-carbonyl)piperidin-4-yl)methyl)-6,7-dihydropyrrolo[3,4-f]isoindole-1,3(2H,5H)-dione]",> 100
8,"O=C1CCC(N2C(=O)c3cc4c(cc3C2=O)CN(CC2(F)CCN(CC3CCN(c5ccc([C@@H]6c7ccc(O)cc7CC[C@@H]6c6ccccc6)cc5)CC3)CC2)C4)C(=O)N1 (stereo partly drawn) [Compound B270, 2-(2,6-dioxopiperidin-3-yl)-6-((4-fluoro-1-((1-(4-((1R,2S)-6-hydroxy-2-phenyl-1,2,3,4-tetrahydronaphthalen-1-yl)phenyl)piperidin-4-yl)methyl)piperidin-4-yl)methyl)-6,7-dihydropyrrolo[3,4-f]isoindole-1,3(2H,5H)-dione]",> 100
9,"O=C1CCC(N2C(=O)c3cc4c(cc3C2=O)CN(CC2(F)CN(CC3CCN(c5ccc([C@@H]6c7ccc(O)cc7CC[C@@H]6c6ccccc6)cc5)CC3)C2)C4)C(=O)N1 (stereo partly drawn) [Compound B271, 2-(2,6-dioxopiperidin-3-yl)-6-((3-fluoro-1-((1-(4-((1R,2S)-6-hydroxy-2-phenyl-1,2,3,4-tetrahydronaphthalen-1-yl)phenyl)piperidin-4-yl)methyl)azetidin-3-yl)methyl)-6,7-dihydropyrrolo[3,4-f]isoindole-1,3(2H,5H)-dione]",> 100
10,"O=C1CCC(N2C(=O)c3cc4c(cc3C2=O)CN(CC(=O)N2CCC3(CC2)CCN(c2ccc([C@@H]5c6ccc(O)cc6CC[C@@H]5c5ccc(F)cc5)cc2)CC3)C4)C(=O)N1 (stereo partly drawn) [Compound B272, 2-(2,6-dioxopiperidin-3-yl)-6-(2-(9-(4-((1R,2S)-2-(4-fluorophenyl)-6-hydroxy-1,2,3,4-tetrahydronaphthalen-1-yl)phenyl)-3,9-diazaspiro[5.5]undecan-3-yl)-2-oxoethyl)-6,7-dihydropyrrolo[3,4-f]isoindole-1,3(2H,5H)-dione]",10 to 100

# Continued, values first:
row,DC50 [nM],Compound
1,> 100,"O=C1CCC(N2C(=O)c3cc4c(cc3C2=O)CN(CC2CCN(CC3CCN(c5ccc([C@@H]6c7ccc(O)cc7CC[C@@H]6c6ccccc6)cc5)CC3)CC2)C4)C(=O)N1 (stereo partly drawn) [Compound B273, 2-(2,6-dioxopiperidin-3-yl)-6-((1-((1-(4-((1R,2S)-6-hydroxy-2-phenyl-1,2,3,4-tetrahydronaphthalen-1-yl)phenyl)piperidin-4-yl)methyl)piperidin-4-yl)methyl)-6,7-dihydropyrrolo[3,4-f]isoindole-1,3(2H,5H)-dione]"
2,> 100,"O=C1CCC(N2C(=O)c3cc4c(cc3C2=O)CN(CC2CN(CC3CCN(c5ccc([C@@H]6c7ccc(O)cc7CC[C@@H]6c6ccccc6)cc5)CC3)C2)C4)C(=O)N1 (stereo partly drawn) [Compound B274, 2-(2,6-dioxopiperidin-3-yl)-6-((1-((1-(4-((1R,2S)-6-hydroxy-2-phenyl-1,2,3,4-tetrahydronaphthalen-1-yl)phenyl)piperidin-4-yl)methyl)azetidin-3-yl)methyl)-6,7-dihydropyrrolo[3,4-f]isoindole-1,3(2H,5H)-dione]"
3,> 100,"O=C1CCC(N2C(=O)c3cc4c(cc3C2=O)CN(CC(=O)N2CCC3(CC2)CC(Oc2ccc([C@@H]5c6ccc(O)cc6CC[C@@H]5c5ccccc5)cc2)C3)C4)C(=O)N1 (stereo partly drawn) [Compound B275, 2-(2,6-dioxopiperidin-3-yl)-6-(2-(2-(4-((1R,2S)-6-hydroxy-2-phenyl-1,2,3,4-tetrahydronaphthalen-1-yl)phenoxy)-7-azaspiro[3.5]nonan-7-yl)-2-oxoethyl)-6,7-dihydropyrrolo[3,4-f]isoindole-1,3(2H,5H)-dione]"
4,> 100,"O=C1CCC(N2C(=O)c3cc4c(cc3C2=O)CN(CC(=O)N2CC3(CC(Oc5ccc([C@@H]6c7ccc(O)cc7CC[C@@H]6c6ccccc6)cc5)C3)C2)C4)C(=O)N1 (stereo partly drawn) [Compound B276, 2-(2,6-dioxopiperidin-3-yl)-6-(2-(6-(4-((1R,2S)-6-hydroxy-2-phenyl-1,2,3,4-tetrahydronaphthalen-1-yl)phenoxy)-2-azaspiro[3.3]heptan-2-yl)-2-oxoethyl)-6,7-dihydropyrrolo[3,4-f]isoindole-1,3(2H,5H)-dione]"
5,> 100,"O=C1CCC(N2C(=O)c3cc4c(cc3C2=O)CN(C(=O)CN2CCC3(CC2)CC(Oc2ccc([C@@H]5c6ccc(O)cc6CC[C@@H]5c5ccccc5)cc2)C3)C4)C(=O)N1 (stereo partly drawn) [Compound B277, 2-(2,6-dioxopiperidin-3-yl)-6-(2-(2-(4-((1R,2S)-6-hydroxy-2-phenyl-1,2,3,4-tetrahydronaphthalen-1-yl)phenoxy)-7-azaspiro[3.5]nonan-7-yl)acetyl)-6,7-dihydropyrrolo[3,4-f]isoindole-1,3(2H,5H)-dione]"
6,> 100,"O=C1CCC(N2C(=O)c3cc4c(cc3C2=O)CN(CC(=O)N2CC3(CCC(Oc5ccc([C@@H]6c7ccc(O)cc7CC[C@@H]6c6ccccc6)cc5)CC3)C2)C4)C(=O)N1 (stereo partly drawn) [Compound B278, 2-(2,6-dioxopiperidin-3-yl)-6-(2-(7-(4-((1R,2S)-6-hydroxy-2-phenyl-1,2,3,4-tetrahydronaphthalen-1-yl)phenoxy)-2-azaspiro[3.5]nonan-2-yl)-2-oxoethyl)-6,7-dihydropyrrolo[3,4-f]isoindole-1,3(2H,5H)-dione]"
7,> 100,"O=C1CCC(N2C(=O)c3cc4c(cc3C2=O)CN(CC(=O)N2CCC3(CCC(Oc5ccc([C@@H]6c7ccc(O)cc7CC[C@@H]6c6ccccc6)cc5)CC3)CC2)C4)C(=O)N1 (stereo partly drawn) [Compound B279, 2-(2,6-dioxopiperidin-3-yl)-6-(2-(9-(4-((1R,2S)-6-hydroxy-2-phenyl-1,2,3,4-tetrahydronaphthalen-1-yl)phenoxy)-3-azaspiro[5.5]undecan-3-yl)-2-oxoethyl)-6,7-dihydropyrrolo[3,4-f]isoindole-1,3(2H,5H)-dione]"
8,> 100,"O=C1CCC(N2C(=O)c3cc4c(cc3C2=O)CN(C2CCN(C(=O)C3(F)CCN(c5ccc([C@@H]6c7ccc(O)cc7CC[C@@H]6c6ccccc6)cc5)CC3)CC2)C4)C(=O)N1 (stereo partly drawn) [Compound B280, 2-(2,6-dioxopiperidin-3-yl)-6-(1-(4-fluoro-1-(4-((1R,2S)-6-hydroxy-2-phenyl-1,2,3,4-tetrahydronaphthalen-1-yl)phenyl)piperidine-4-carbonyl)piperidin-4-yl)-6,7-dihydropyrrolo[3,4-f]isoindole-1,3(2H,5H)-dione]"
